# Experimental data published in patent US9650399B2, “Salicylic acid derivatives, pharmaceutically acceptable salt thereof, composition thereof and method of use thereof” (The Governing Council of the University of Toronto, priority 2012, dated 2017).
# Key:
# Type in all cases: cell-based, human
# [1] = system: BTSC73M; assay: alamarBlue cell viability, BTSC 73M; settings: Table 4 library screen, alamarBlue; for IC50: Homo sapiens, read-out: 73M IC50
# Procedure: (§1) First, the library was screened for biological activity against a set of three representative GBM BTSCs derived from GBM patients, including the very aggressive GBM BTSC lines, BTSC73M, BTSC30M, BTSC68EF. Dissociated BTSC spheres were seeded at 1500 cells/96-well and treated with drug compound or vehicle (DMSO) one day after plating. Cell viability following drug treatment was assessed after 72 hrs using the ALAMARBLUE™ assay (Invitrogen) according to the manufacturer's instructions. All culture experiments were performed in triplicate with a minimum of three wells per condition.
# (§2) BTSC spheres were dissociated to single cells with the enzyme Accumax (Innovative Technologies), seeded at 1500 cells/96-well and treated with drug or vehicle (DMSO) one day after plating. […] BTSC spheres were dissociated to single cells as above and plated in 96 well plates in triplicate at 3000 cells/96-well. […] Cell viability following drug treatment was assessed three days later using the ALAMARBLUE™ assay (Invitrogen) according to the manufacturer's instructions. All culture experiments were performed in triplicate with a minimum of three wells per condition.
# [2] = system: BTSC30M; assay: alamarBlue cell viability, BTSC 30M; settings: Table 4 library screen, alamarBlue; for IC50: Homo sapiens, read-out: 30M IC50 (μM)
# Procedure: as §1, §2
# [3] = system: 147EF; assay: alamarBlue cell viability, BTSC 147EF; settings: Table 4 library screen
# From the text: BTSC spheres were dissociated to single cells with the enzyme Accumax (Innovative Technologies), seeded at 1500 cells/96-well and treated with drug or vehicle (DMSO) one day after plating. Cytotoxicity studies were repeated independently at Sickkids Hospital using BTSC lines 25M, 67EF, 73EF, 84EF and 127EF. BTSC spheres were dissociated to single cells as above and plated in 96 well plates in triplicate at 3000 cells/96-well. In both sets of experiments drugs were used as serial dilutions within the range of 5 μM to 100 nM in the first set and 25 μM to 10 nM. Cell viability following drug treatment was assessed three days later using the ALAMARBLUE™ assay (Invitrogen) according to the manufacturer's instructions. All culture experiments were performed in triplicate with a minimum of three wells per condition. Table 4 below illustrates a screen of the library against a number of BTSCs using ALAMARBLUE™ assay.
# [4] = system: BTSC68EF; assay: alamarBlue cell viability, BTSC 68EF; settings: Table 4 library screen, alamarBlue; for IC50: Homo sapiens, read-out: 68EF IC50
# Procedure: as §1, §2
Compound,73M IC50 (μM) [1],30M IC50 (μM) [2],IC50 [1] [nM],IC50 [2] [µM],other results
"Cc1ccc(S(=O)(=O)N(C)CC(=O)N(Cc2ccc(C3CCCCC3)cc2)c2ccc(NC(=O)C(=O)O)cc2)cc1 [Compound 46, 2-((4-(N-(4-cyclohexylbenzyl)-2-(N,4-dimethylphenylsulfonamido)acetamido)phenyl)amino)-2-oxoacetic acid]",no effect,no effect,,,147EF IC50 (μM) [3]: no effect
"CN(CC(=O)N(Cc1ccc(C2CCCCC2)cc1)c1ccc(NS(C)(=O)=O)cc1)S(=O)(=O)c1c(F)c(F)c(F)c(F)c1F [Compound 14, N-(4-cyclohexylbenzyl)-N-(4-(methylsulfonamido)phenyl)-2-(2,3,4,5,6-pentafluoro-N-methylphenylsulfonamido)acetamide]",,,1810,0.718,IC50 [4]: 806 nM
"CN(CC(=O)N(Cc1ccc(C2CCCCC2)cc1)c1ccc(C#N)cc1)S(=O)(=O)c1c(F)c(F)c(F)c(F)c1F [Compound 34, N-(4-cyanophenyl)-N-(4-cyclohexylbenzyl)-2-(2,3,4,5,6-pentafluoro-N-methylphenylsulfonamido)acetamide]",no effect,,,2.23,
"CN(CC(=O)N(Cc1ccc(C2CCCCC2)cc1)c1ccc(NC(=O)C(=O)O)cc1)S(=O)(=O)c1c(F)c(F)c(F)c(F)c1F [Compound 28, 2-((4-(N-(4-cyclohexylbenzyl)-2-(2,3,4,5,6-pentafluoro-N-methylphenylsulfonamido)acetamido)phenyl)amino)-2-oxoacetic acid]",no effect,no effect,,,147EF IC50 (μM) [3]: no effect
"CN(CC(=O)N(Cc1ccc(C2CCCCC2)cc1)c1cc(C(=O)O)cc(C(=O)O)c1)S(=O)(=O)c1c(F)c(F)c(F)c(F)c1F [Compound 37, 5-(N-(4-cyclohexylbenzyl)-2-(2,3,4,5,6-pentafluoro-N-methylphenylsulfonamido)acetamido)isophthalic acid]",no effect,no effect,,,
"COC(=O)c1ccc(N(Cc2ccc(C3CCCCC3)cc2)C(=O)CN(C)S(=O)(=O)c2c(F)c(F)c(F)c(F)c2F)cc1 [Compound 39, methyl 4-(N-(4-cyclohexylbenzyl)-2-(2,3,4,5,6-pentafluoro-N-methylphenylsulfonamido)acetamido)benzoate]",,,3320,1.09,IC50 [4]: 607 nM
"CN(CC(=O)N(Cc1ccc(C2CCCCC2)cc1)c1ccc(-c2nnn[nH]2)cc1)S(=O)(=O)c1c(F)c(F)c(F)c(F)c1F [Compound 35, N-(4-(1H-tetrazol-5-yl)phenyl)-N-(4-cyclohexylbenzyl)-2-(2,3,4,5,6-pentafluoro-N-methylphenylsulfonamido)acetamide]",,no effect,2770,,68EF IC50 (μM) [4]: no effect
"CN(CC(=O)N(Cc1ccc(C2CCCCC2)cc1)c1ccc(NS(=O)(=O)c2cncn2C)cc1)S(=O)(=O)c1c(F)c(F)c(F)c(F)c1F [Compound 15, N-(4-cyclohexylbenzyl)-N-(4-(1-methyl-1H-imidazole-5-sulfonamido)phenyl)-2-(2,3,4,5,6-pentafluoro-N-methylphenylsulfonamido)acetamide]",,,,0.607,
"CC(=O)OCOC(=O)c1ccc(N(Cc2ccc(C3CCCCC3)cc2)C(=O)CN(C)S(=O)(=O)c2c(F)c(F)c(F)c(F)c2F)cc1 [Compound 26, acetoxymethyl 4-(N-(4-cyclohexylbenzyl)-2-(2,3,4,5,6-pentafluoro-N-methylphenylsulfonamido)acetamido)benzoate]",,,4340,1.95,
"CN(CC(=O)N(Cc1ccc(C2CCCCC2)cc1)c1cccc(O)c1)S(=O)(=O)c1c(F)c(F)c(F)c(F)c1F [Compound 30, N-(4-cyclohexylbenzyl)-N-(3-hydroxyphenyl)-2-(2,3,4,5,6-pentafluoro-N-methylphenylsulfonamido)acetamide]",,,2840,0.776,
"CCOC(=O)C(=O)Nc1ccc(N(Cc2ccc(C3CCCCC3)cc2)C(=O)CN(C)S(=O)(=O)c2c(F)c(F)c(F)c(F)c2F)cc1 [Compound 17, ethyl 2-((4-(N-(4-cyclohexylbenzyl)-2-(2,3,4,5,6-pentafluoro-N-methylphenylsulfonamido)acetamido)phenyl)amino)-2-oxoacetate]",,,1240,0.694,IC50 [4]: 631 nM
"CN(CC(=O)N(Cc1ccc(C2CCCCC2)cc1)c1ccc(CP(=O)(O)O)cc1)S(=O)(=O)c1c(F)c(F)c(F)c(F)c1F [Compound 21, (4-(N-(4-cyclohexylbenzyl)-2-(2,3,4,5,6-pentafluoro-N-methylphenylsulfonamido)acetamido)benzyl)phosphonic acid]",no effect,,,,
"CCOC(=O)c1ccc(N(Cc2ccc(C3CCCCC3)cc2)C(=O)CN(C)S(=O)(=O)c2c(F)c(F)c(F)c(F)c2F)cc1 [Compound 40, ethyl 4-(N-(4-cyclohexylbenzyl)-2-(2,3,4,5,6-pentafluoro-N-methylphenylsulfonamido)acetamido)benzoate]",no effect,,,,
"CN(CC(=O)N(Cc1ccc(C2CCCCC2)cc1)c1ccc(NS(=O)(=O)c2ccc3ccccc3c2)cc1)S(=O)(=O)c1c(F)c(F)c(F)c(F)c1F [Compound 12, N-(4-cyclohexylbenzyl)-N-(4-(naphthalene-2-sulfonamido)phenyl)-2-(2,3,4,5,6-pentafluoro-N-methylphenylsulfonamido)acetamide]",no effect,no effect,,,
"CCOC(=O)C(=O)Nc1ccc(N(Cc2ccc(C3CCCCC3)cc2)C(=O)CN(C)S(=O)(=O)c2ccc(C)cc2)cc1 [Compound 18, ethyl 2-((4-(N-(4-cyclohexylbenzyl)-2-(N,4-dimethylphenylsulfonamido)acetamido)phenyl)amino)-2-oxoacetate]",no effect,no effect,,,IC50 ([3]; Homo sapiens): 3580 nM
"CN(CC(=O)N(Cc1ccc(C2CCCCC2)cc1)c1ccc(NS(=O)(=O)c2ccc3ncccc3c2)cc1)S(=O)(=O)c1c(F)c(F)c(F)c(F)c1F [Compound 13, N-(4-cyclohexylbenzyl)-2-(2,3,4,5,6-pentafluoro-N-methylphenylsulfonamido)-N-(4-(quinoline-6-sulfonamido)phenyl)acetamide]",no effect,no effect,,,
"CN(CC(=O)N(Cc1ccc(C2CCCCC2)cc1)c1ccc(NS(N)(=O)=O)cc1)S(=O)(=O)c1c(F)c(F)c(F)c(F)c1F [Compound 16, N-(4-cyclohexylbenzyl)-2-(2,3,4,5,6-pentafluoro-N-methylphenylsulfonamido)-N-(4-(sulfamoylamino)phenyl)acetamide]",,,2040,0.95,IC50 [4]: 839 nM
"CN(CC(=O)N(Cc1ccc(C2CCCCC2)cc1)c1ccc(O)cc1)S(=O)(=O)c1c(F)c(F)c(F)c(F)c1F [Compound 29, N-(4-cyclohexylbenzyl)-N-(4-hydroxphenyl)-2-(2,3,4,5,6-pentafluoro-N-methylphenylsulfonamido)acetamide]",,,,0.941,IC50 [4]: 1090 nM
"CCOP(=O)(Cc1ccc(N(Cc2ccc(C3CCCCC3)cc2)C(=O)CN(C)S(=O)(=O)c2c(F)c(F)c(F)c(F)c2F)cc1)OCC [Compound 20, diethyl 4-(N-(4-cyclohexylbenzyl)-2-(2,3,4,5,6-pentafluoro-N-methylphenylsulfonamido)acetamido)benzylphosphonate]",,,1820,0.664,68EF IC50 (μM) [4]: no effect
